Entries after “also recorded” stand apart in the source; their conditions may differ.
How the values were obtained:
lac promoter = assay: EGFP fluorescence reporter assay of induction of protein expression under the lac promoter; type: cell-based, E. coli; conditions: for EGFP fluorescence emission at 507 nm after excitation at 488 nm, normalized for the number of cells: induced at OD600 0.7, versus culture without inducer
Description: To compare the ability of the C-glycoside to take the place of IPTG in the induction of protein expression, assays of promoter activity that rely on production of a fluorescent protein were pursued. Reporters for gene activity in bacteria that rely on green fluorescent protein (GFP) and its variants have become very popular as they have been validated by direct comparison to traditional reporter assays using either chloroamphenicol acetyltransferase or β-galactosidase. For bacterial studies, the enhanced green fluorescent protein (EGFP) is particularly useful as it is not toxic to E. coli like the wild type GFP itself and the protein folds and autocatalyzes formation of its fluorophore with a half-life of less than 45 minutes rather than hours. Therefore, the gene for EGFP (BD Biosciences) was ligated into a pET vector plasmid using NcoI and EcoRI in order to have control of EGFP protein expression with a lac promoter system and to have low background protein expression levels. This plasmid was transformed into E. coli BL21 DE(3) cells for protein expression studies. The cells were grown to an optical density of 0.7 (at 600 nm) and then protein production was induced with either IBCG or IPTG. The fluorescence emission at 507 nm after excitation at 488 nm, normalized for the number of cells, was plotted as a function of time (data not shown) as previously reported.

[1] = Stability of the inducer in solution on storage; type: physicochemical; conditions: ambient / room temperature; in water
Description: This improved stability feature of IBCG also results in more accurate concentrations of the compound when used in experiments.
The latter property is especially valuable for small scale culture induction and for cases in which a more precise concentration of inducer is desirable.

[2] = E. coli BL21 DE(3) with pET-EGFP plasmid

Compound	EGFP fluorescence emission at 507 nm after excitation at 488 nm, normalized for the number of cells (lac promoter; [2])	stability in solution [1]	EGFP fluorescence of IBCG induced cells compared with IPTG induced cells (lac promoter; E. coli BL21 DE(3) with pET-EGFP plasmid, induction times of greater than four hours)	cell permeability (lac promoter; E. coli cells, inferred from induction of protein expression)
CC(C)S[C@@H]1O[C@H](CO)[C@H](O)[C@H](O)[C@H]1O [IPTG, isopropyl-β-D-thiogalactopyranoside, reference compound]	considerably larger	–	–	–
CC(C)CC1OC(CO)C(O)C(O)C1O [IBCG, 1-isobutyl-,β-D-galactose]	considerably larger	stable in solution at ambient temperature; also recorded: can be autoclaved in water and stored in room temperature	even greater fluorescence than the IPTG induced cells	retains cell permeability
